Data taken from patent publication US20070299084A1, “Indole Derivatives Useful for Treating Resistance to Antitumor Agents” (NIKEM RESE S.R.L., priority 2004, published 2007).

What was measured:
[1] = system: HT29/Mit cells (mitoxantrone-resistant human colon carcinoma, BCRP overexpression); test: Antiproliferative activity, 72 h treatment, SRB assay, HT29/Mit
Protocol: HT29 and HT29/Mit (line obtained by prolonged exposure to mitoxantrone, and characterised by overerexpression of BCRP, which confers cross resistance to topotecan, irinotecan and to its metabolite SN38): maintained in McCoy 5A medium+10% FCS.
(§1) The cells (HT29 and HT29/Mit:. 40,000 cells/ml, LoVo, LoVo/Dx and HCT116: 50,000 cells/ml) are seeded in 100 μl of the respective culture media in 96-well plates. 24 hours after seeding, an aliquot (10 μl) of drug at the various concentrations is added. In the samples in which the effect of the combination of two compounds is to be tested the inhibitor is added immediately before the cytotoxic. For each dose or combination of doses/drugs the effect of the treatment is determined in 4-8 replicates.
(§2) After 72 hours of treatment the antiproliferative effect is evaluated using the sulforhodamine B (SRB) assay: the cells are fixed by adding 25 μl of 50% TCA to each well and left for 1 hour at 4° C. After washing them with water and allowing them to dry, 100 μl of 0.4% SRB in 1% acetic acid are added and left for 30 minutes at room temperature. After 4 washes in 1% acetic acid, they are left to dry, then the dye fixed by the proteins is dissolved under basic conditions with 100 μl 10 mM cold Tris and the solution is read using a spectrophotometer at 550 nm.
(§3) Percentage cell growth is calculated as the optical density of treated samples compared to the optical density of controls (untreated cells).
(§4) The Combination Index (C.I.) was determined according to Kern's method, 1988 (who continued from Drewinko B, 1976) (Kern D. H., Cancer Res. 48, 117-121, 1988; Drewinko B., Cancer Biochem. Biophys. 1, 187-195, 1976) by means of the following formula: […], where SFa and SFb are the fractions of cells surviving to treatment with compound a and b, respectively; SFab is the fraction surviving to the combination of compounds a and b.

[2] = system: LoVo cells (human colon carcinoma); test: Antiproliferative activity, 72 h treatment, SRB assay, LoVo; format: cell-based
Text: LoVo and LoVo/Dx (line obtained by prolonged exposure to doxorubicin and characterised by overerexpression of P-glycoprotein, which confers resistance to doxorubicin): maintained in HAM-F12 medium+10% FCS.

[3] = system: HCT116 cells (human colon carcinoma); test: Antiproliferative activity, 72 h treatment, SRB assay, HCT116; format: cell-based
Protocol: HCT116 maintained in RPMI 1640 medium+10% FCS.
as §1, §2, §3, §4

[4] = system: HepG2 cells (human hepatic carcinoma); test: Antiproliferative activity, 48 h treatment, ATPlite luminescence assay, HepG2; format: cell-based; conditions: Homo sapiens, HepG2, read-out: Antiproliferative activity (IC50 ± S.D., μM) HepG2
Protocol: HepG2: maintained in EMEM medium+10% FCS.
24 hours after seeding, an aliquot (10 μl) of the drug at the various concentrations is added (for each concentration there are 3 replicates). After 48 hours of treatment the antiproliferative effect is evaluated with a luminescence assay (Perkin Elmer Life Sciences ATPlite):
50 μl of a lysis solution are added to each well followed by an equal volume of a solution containing luciferase and D-luciferin. The ATP present in all the metabolically active cells brings about the transformation reaction of D-luciferin, catalysed by luciferase, to produce a luminescent signal as described in the following scheme: ATP+D-luciferin+O2→Oxyluciferin+AMP+PPi+CO2+Light
The luminescence produced (expressed in counts per second, CPS) is measured by means of a microplate scintillation analyzer (Perkin Elmer Life Sciences Top Count).
Percentage inhibition of luminescence in the treated cells compared to the control is calculated; concentration-response curves are then analysed using Grafit v.5.0.

[5] = system: H460 cells (human lung carcinoma); test: Invasion assay (Matrigel chemoinvasion); format: cell-based
Protocol: Human Lung Carcinoma:H460: maintained in RPMI1640 medium+10% FCS.
H460 cells were seeded in complete medium and treated with different compound concentrations for 24 h. Then, cells were harvested and transferred to 24-well Transwell chambers (Costar) in serum-free medium in the following ways:
invasion assay: Transwell membranes were coated with 12.5 μg/well of Matrigel (BD Biosciences) and dried for 24 h. After this, 2.4×10^5 cells/well were seeded onto the artificial basement membrane in upper chamber, and drug was added as described for migration assay. After 24 h of incubation at 37° C., cells that invaded the Matrigel and migrated to the lower chamber were stained and counted as described for migration assay.

[6] = system: HT29/Mit human colon carcinoma xenografts; test: HT29/Mit human colon carcinoma xenografts, antitumor activity; format: in vivo, athymic Swiss nude mice; conditions: HT29/Mit xenograft, p.o.; topotecan 15 mg/Kg every 4 days for 3 administrations; compound of example 2 30 mg/kg; alone or combined
Protocol: Female athymic Swiss nude mice (8-10 weeks old) (Charles River, Calco, Italy) were used for the experiments. The animals were maintained at constant temperature and humidity, and were allowed to eat and drink freely. The experimental protocol was approved by the Ethics Committee for Animal Experimentation of the Istituto Nazionale Tumori of Milan.
The antitumour effectiveness of the compounds of the invention under discussion was tested on athymic mouse models implanted with HT29 and/or HT29/Mit tumour cells: this latter variety is highly resistant to topotecan treatment. The tumour cells were implanted in vivo via subcutaneous injection of 10^7 cells taken from in vitro cultures. Randomized groups of five mice with bilateral subcutaneous tumours were used for the experiment.
Topotecan or other known antitumour agents (dissolved in distilled water or an appropriate solvent) and the compounds of the invention (dissolved in Cremophor EL:ethanol:saline solution in the proportions 5:5:90, or in an appropriate solvent) were administered orally from the third day, alone or in combination, in agreement with a treatment scheme selected in an appropriate manner depending on the type of compound to be studied.
The weight (or volume) of the tumour in treated mice compared to controls is represented graphically on the y-axis against time (x-axis).

CCOc1cc(C(=O)NC2CC(C)(C)NC(C)(C)C2)ccc1-c1cc2cc(Cl)c(Cl)cc2[nH]1 [Example 2]
Effect on antiproliferative activity of topotecan ([1]; HT29/Mit model, subtoxic and subactive concentrations (<1 μM) of compound of example 2): enhanced antiproliferative activity of topotecan | Effect on cell growth of compound of example 2 alone ([1]; HT29/Mit, 72 hours, 0.5 μM): does not itself inhibit cell growth | IC50 ([1]; Homo sapiens, HT-29, 72 h, read-out: Antiproliferative activity (IC50 ± S.D., μM) HT-29/Mit): 0.9 ± 0.2 µM | IC50 ([2]; Homo sapiens, LoVo, 72 h, read-out: Antiproliferative activity (IC50 ± S.D., μM) LoVo): 2.4 ± 1.4 µM | Interaction with SN38 ([2]; LoVo line): synergism | Interaction with taxol ([2]; LoVo line): synergism | Interaction with cisplatin ([3]; HCT116 line, subtoxic and subactive concentrations): significant synergistic effect | IC50 ([3]; Homo sapiens, HCT-116, 72 h, read-out: Antiproliferative activity (IC50 ± S.D., μM) HCT116): 2.4 ± 0.9 µM | IC50 [4]: 2 ± 0.1 µM | inhibition at 2.2 µM ([5]; NCI-H460, 2.2 μM): 92% | inhibition at 5.7 µM ([5]; NCI-H460, 5.7 μM): 100% | Inhibition of tumour growth [6]: poorly effective
